Assay [1] relates to PCP-induced cognitive deficits. As to the kind of experiment: Rodent novel object recognition (NOR) assay in phencyclidine-induced cognitive deficits modeling schizophrenia. On the set-up: key to time spent exploring novel object (TN) / time spent exploring familiar object (TF): exploration time in seconds. It counts as in vivo, rat. The settings on record: PCP-treated rats, 2 h ITI. From the text: Rodent Novel Object Recognition (NOR) Assay in Phencyclidine-Induced Cognitive Deficits Modeling Schizophrenia
The aim of this study was to investigate the ability of the compounds of the invention to improve subchronic PCP-induced impairment in cognition memory using the NOR task in the rat, a paradigm of relevance to cognition in schizophrenia. Adult male Sprague-Dawley rats (250-350 g; Harlan, USA) were used for the experiments Animal were acclimated to the facility for 7 days prior to experimentation. Seven groups of 14 animals per group were used for the experiment. One group of animals received vehicle (0.9% saline twice daily) and the remaining six groups received PCP (2.5 mg/kg, s.c. twice daily) for 7 days, followed by 5-days drug free. On the test day, the animals were allowed to acclimate to the testing room for 30 min prior to initiation of experiments. Experiments were carried out in a white plexiglass chamber, designated as experimental arena. The arena was placed in a dark experimental room that was illuminated by a halogen lamp, providing a dim light to the arena.
Animals were placed in the arena for a 5 minute period to freely explore the test chamber in the absence of objects (habituation). Animals were then returned to their home cage immediately upon completion of habituation for a 120 min period. (1R,3R,5S)-8-Methyl-8-azabicyclo[3.2.1]octan-3-yl 1-(2,2,2-trifluoroethyl)-1H-indole-3-carboxylate (0.1, 1, 10 mg/kg s.c.), or vehicle (veh, saline) was administered 120 min prior to T1 and galantamine (5 mg/kg, i.p.) was administered 30 min prior to T1. Animals were returned to the arena which contained two identical objects (plastic balls) placed at one end of the arena (acquisition, T1), and allowed to explore for a 5 min period. The time spent exploring the two objects was recorded Animals were once again returned to the home cage for a period of 120 min (ITI).
ITI was followed by the retention phase (T2) where one of the objects presented in the first trial was replaced by a novel object and animals were allowed to explore for an additional 5 min period. Again, the time spent exploring the two objects was recorded.
For the retention phase, the differences between the time spent exploring the familiar object and the novel object were examined. All sessions were recorded and scored blindly for the time exploring objects. Exploration is defined as touching the object or directing nose towards object at a distance less that 2 cm. A minimal exploration criterion was used such that only animals with exploration time of greater than 5 seconds per object were included.
Comparisons of all treatment groups were conducted using a one-way ANOVA followed by a Bonferroni's post hoc test for multiple comparisons.

Assay [2] has as its target 5HT3a receptor expressed in HEK-293T cells (Homo sapiens (Human), UniProt P46098). As to the kind of experiment: Inhibition of Ca flux activity of 5HT3 in vitro assay. The settings on record: calcium flux, 5HT 216 nM, approximate values. In kind it is cell-based. The procedure, abridged:
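HEK-293T cells transiently transfected with human 5HT3a, loaded 1 hour at 37° C with calcium dye in HBSS/20 mM HEPES, preincubated with compound (10^−7 to 10^−10, half-log) 10 minutes at room temperature.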
(In general: Calcium assays in cells follow changes in intracellular calcium, usually with a dye or a luminescent sensor.)

[3] abbreviates: 0.1 mg/kg s.c. (bracket prints 0.01 mg/kg).
Where [4] appears, read: 1 mg/kg s.c. (bracket prints 0.1 mg/kg).

Where a name gives a salt, the structure may show the parent alone.

5HT3a receptor expressed in HEK-293T cells, sequence (P46098 24-478): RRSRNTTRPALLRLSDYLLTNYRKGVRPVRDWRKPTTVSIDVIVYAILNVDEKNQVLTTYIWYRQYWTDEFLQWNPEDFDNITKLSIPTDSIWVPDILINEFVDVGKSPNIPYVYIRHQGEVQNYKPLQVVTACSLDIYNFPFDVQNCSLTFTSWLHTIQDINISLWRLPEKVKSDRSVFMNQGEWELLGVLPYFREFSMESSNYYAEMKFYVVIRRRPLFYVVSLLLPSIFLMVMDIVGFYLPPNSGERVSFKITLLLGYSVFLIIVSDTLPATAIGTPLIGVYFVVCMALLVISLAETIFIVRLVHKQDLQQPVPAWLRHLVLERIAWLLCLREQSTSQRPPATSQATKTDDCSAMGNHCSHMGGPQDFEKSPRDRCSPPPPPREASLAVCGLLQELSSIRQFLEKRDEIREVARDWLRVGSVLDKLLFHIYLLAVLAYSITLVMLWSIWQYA

As for `CN1[C@@H]2CC[C@H]1C[C@@H](OC(=O)c1cn(CC(F)(F)F)c3ccccc13)C2`, the entries for the “time spent exploring familiar object (TF)” value in assay [1] (setting [3]), in assay [1] (setting [4]) and in assay [1] (10 mg/kg s.c.) were 12.5±2.152, 12.7±1.027 and 9.831±1.53, respectively. Also, the “time spent exploring novel object (TN)” value came to 22.9±3.65 in assay [1] (setting [3]), 25.3±2.51 in assay [1] (setting [4]) and 22.8±2.48 in assay [1] (10 mg/kg s.c.). Moreover, the “discrimination between familiar and novel objects” value was “did not demonstrate a statistically significant discrimination” in assay [1] (0.1 mg/kg s.c.), “demonstrated a statistically significant discrimination” in assay [1] (1 mg/kg s.c.) and “demonstrated a statistically significant discrimination” in assay [1] (10 mg/kg s.c.).

Regarding `CN1C2COCC1CC(NC(=O)c1cn(-c3ccccc3)c3ccccc13)C2` [Example 174, N-((1R,5S,7s)-9-methyl-3-oxa-9-azabicyclo[3.3.1]nonan-7-yl)-1-phenyl-1H-indole-3-carboxamide, 2,2,2-trifluoroacetic acid salt], the IC50 in assay [2] came to 2.06 nM.

Regarding `O=C(O[C@H]1C[C@H]2COC[C@@H](C1)N2)c1cn(-c2ncco2)c2ccccc12` [Example 177, (1R,5S,7s)-3-oxa-9-azabicyclo[3.3.1]nonan-7-yl 1-(oxazol-2-yl)-1H-indole-3-carboxylate, 2,2,2-trifluoroacetic acid salt], the IC50 in assay [2] amounted to 3.22 nM.

Turning to `N#Cc1ccc(-n2cc(C(=O)O[C@H]3C[C@H]4COC[C@@H](C3)N4)c3ccccc32)cc1` [Example 180, (1R,5S,7s)-3-oxa-9-azabicyclo[3.3.1]nonan-7-yl 1-(4-cyanophenyl)-1H-indole-3-carboxylate, 2,2,2-trifluoroacetic acid salt], the IC50 in assay [2] was 5.91 nM.

With `CN(C(=O)c1cn(-c2cnsc2)c2ccccc12)[C@H]1C[C@H]2COC[C@@H](C1)N2` [Example 185, N-((1R,5S,7S)-3-oxa-9-azabicyclo[3.3.1]nonan-7-yl)-1-(isothiazol-4-yl)-N-methyl-1H-indole-3-carboxamide], the IC50 in assay [2] stood at 3.06 nM.

On to `CN(C(=O)c1cn(-c2cnsc2)c2ccccc12)C1C[C@H]2COC[C@@H](C1)N2C` (stereo partly drawn) [Example 186, 1-(isothiazol-4-yl)-N-methyl-N-((1R,5S,7S)-9-methyl-3-oxa-9-azabicyclo[3.3.1]nonan-7-yl)-1H-indole-3-carboxamide], for which the half-maximal inhibitory concentration (IC50) in assay [2] is 1.5 nM.

Consider `CN1[C@@H]2COC[C@H]1CC(NC(=O)c1cn(-c3ccnnc3)c3ccccc13)C2` (stereo partly drawn) [Example 190, N-((1R,5S,7S)-9-methyl-3-oxa-9-azabicyclo[3.3.1]nonan-7-yl)-1-(pyridazin-4-yl)-1H-indole-3-carboxamide], for which the IC50 in assay [2] came to 0.75 nM.

With `COc1ccc2c3c1O[C@H]1C[C@@H](O)C=C[C@@]31CCN(C)C2` [Galantamine, galantamine, reference compound], in assay [1] (galantamine 5 mg/kg i.p.), the “discrimination between familiar and novel objects” value is reported as “statistically significant discrimination”; the “time spent exploring familiar object (TF)” value came out at 11.19±1.376; the “time spent exploring novel object (TN)” value is reported as 22.8±2.2.

For “(1R,3R,5S)-8-methyl-8-azabicyclo[3.2.1]octan-3-yl 1-(2,2-difluoroethyl)-1H-pyrrolo[2,3-b]pyridine-3-carboxylate 2,2,2-trifluoroacetate [Example 1]”, the 50% inhibitory concentration (IC50) in assay [2] came to 2.13 nM.

“(1R,3R,5S)-8-methyl-8-azabicyclo[3.2.1]octan-3-yl 2-chloro-1-(2,2-difluoroethyl)-1H-indole-3-carboxylate 2,2,2-trifluoroacetate [Example 4]”: in assay [2], the 50% inhibitory concentration (IC50) was 1.4 nM.

On to “(1R,3R,5S)-8-methyl-8-azabicyclo[3.2.1]octan-3-yl 2-chloro-1-(methylsulfonyl)-1H-indole-3-carboxylate 2,2,2-trifluoroacetate [Example 6]”, for which the half-maximal inhibitory concentration (IC50) in assay [2] came to 2.33 nM.

Regarding “(1R,3R,5S)-8-methyl-8-azabicyclo[3.2.1]octan-3-yl 3,4-dihydro-2H-[1,3]oxazino[3,2-a]indole-10-carboxylate 2,2,2-trifluoroacetate [Example 19]”, the IC50 in assay [2] was 7.72 nM.

On to “(1R,5S,7S)-3-Oxa-9-azabicyclo[3.3.1]nonan-7-yl 1-(2,2-difluoroethyl)-5-fluoro-1H-indole-3-carboxylate 2,2,2-trifluoroacetic acid [Example 13]”, for which the 50% inhibitory concentration (IC50) in assay [2] stood at 0.93 nM.

As for “(1R,5S,7S)-9-methyl-3-oxa-9-azabicyclo[3.3.1]nonan-7-yl 1-(2,2-difluoroethyl)-1H-pyrrolo[2,3-b]pyridine-3-carboxylate 2,2,2-trifluoroacetate [Example 14]”, in assay [2], the 50% inhibitory concentration (IC50) was determined as 3.71 nM.

As to “(1R,5S,7S)-9-methyl-3-oxa-9-azabicyclo[3.3.1]nonan-7-yl 1-(5-fluoropyrazin-2-yl)-1H-indole-3-carboxylate, 2,2,2-trifluoroacetic acid salt [Example 33]”, in assay [2], the IC50 was 14.4 nM.

Consider “(1R,5S,7S)-9-methyl-3-oxa-9-azabicyclo[3.3.1]nonan-7-yl 1-(isothiazol-3-yl)-1H-indole-3-carboxylate, 2,2,2-trifluoroacetic acid salt [Example 34]”, for which the concentration for half-maximal inhibition (IC50) in assay [2] was determined as 0.74 nM.

“(1R,5S,7s)-3-oxa-9- azabicyclo[3.3.1]nonan- 7-yl 1-(isothiazol-3-yl)- 1H-indole-3- carboxamide, 2,2,2- trifluoroacetic acid salt [Example 145]”: the IC50 in assay [2] stood at 2.71 nM.

In the case of “(1R,5S,7s)-3-oxa-9- azabicyclo[3.3.1]nonan- 7-yl 1-(isothiazol-5-yl)- 1H-indole-3- carboxamide, 2,2,2- trifluoroacetic acid salt [Example 155]”, the IC50 in assay [2] stood at 1.26 nM.

As to “(1R,5S,7s)-3-oxa-9-azabicyclo[3.3.1]nonan-7-yl 1-(2-cyanophenyl)-1H-indole-3-carboxylate, 2,2,2-trifluoroacetic acid salt [Example 28]”, in assay [2], the half-maximal inhibitory concentration (IC50) was determined as 1.08 nM.

For “(1R,5S,7s)-3-oxa-9-azabicyclo[3.3.1]nonan-7-yl 1-(pyrazin-2-yl)-1H-indole-3-carboxylate, 2,2,2-trifluoroacetic acid salt [Example 27]”, the IC50 in assay [2] was 0.89 nM.

In the case of “(1R,5S,7s)-9-methyl-3-oxa-9-azabicyclo[3.3.1]nonan-7-yl 1-(6-fluoropyridazin-3-yl)-1H-indole-3-carboxylate [Example 25]”, in assay [2], the concentration for half-maximal inhibition (IC50) was 3.88 nM.

For “(1R,5S,7s)-9-methyl-3-oxa-9-azabicyclo[3.3.1]nonan-7-yl 1-(6-hydroxypyridazin-3-yl)-1H-indole-3-carboxylate, 2,2,2-trifluoroacetic acid salt [Example 32]”, the half-maximal inhibitory concentration (IC50) in assay [2] was 1.38 nM.

Turning to “N-((1R,5S,7S)-3-oxa-9-azabicyclo[3.3.1]nonan-7-yl)-5-fluoro-1-(2,2,2-trifluoroethyl)-1H-indole-3-carboxamide 2,2,2-trifluoroacetate [Example 17]”, in assay [2], the 50% inhibitory concentration (IC50) came out at 4.39 nM.

On to “N-((1R,5S,7S)-3-oxa-9-azabicyclo[3.3.1]nonan-7-yl)-5-fluoro-1-(2,2,2-trifluoroethyl)-1H-indole-3-carboxamide 2,2,2-trifluoroacetic acid [Example 16]”, for which, in assay [2], the IC50 is 3.25 nM.

“N-((1R,5S,7s)-9-methyl-3-oxa-9-azabicyclo[3.3.1]nonan-7-yl)-1-phenyl-1H-indole-3-carboxamide, 2,2,2-trifluoroacetic acid salt [Example 26]”: in assay [2], the IC50 worked out at 0.54 nM.

In general, IC50 refers to the point on the concentration scale where inhibition reaches its midpoint.

The values above are taken from US9303045B2, “5-HT3 receptor antagonists” (Takeda Pharmaceutical Company Limited, priority 2013, dated 2016).
